Source: US10730865B2, “Compounds for modulating aquaporins” (APOGLYX AB, priority 2016, dated 2020)

Target: human aquaporin 9 (Homo sapiens (Human), UniProt O43315)
Assay: Calcein quenching fluostar assay (inhibition of human aquaporin 9)
Assay type: cell-based
Conditions: Human AQP9 cell line; example compounds used as 1 mM stock solutions in DMSO
Method: Calcein Quenching Fluostar Assay
A calcein quenching fluostar assay was performed in order to investigate the biological activity of the newly synthesized examples 1 to 57. This type of assay is disclosed in J. Biol. Chem., 2011, 286, 44319-44325 and Am. J. Physiol. Renal Physiol. (2010), 298, F224-230.
1) Two days prior to commencement of the assay, seed 10,000 cells/well of 96 well black clear bottom plate (Greiner Poly-lysin plate). A 1:1 mix of Dulbecco's Modified Eagle's Medium: Nutrient Mixture F-12 (DMEM: F12) was obtained from Gibco. Tetracycline stock of 5 mg/ml in 96% ethanol is used. Medium: DMEM/F12/10% Donor Bovine Serum, Human AQP9 cell line+1:270,000 tetracyclin, mouse AQP9 cell line+1:2,700,000 tetracycline.
2) Day of assay: Flick/slam off the medium and add 50 μl/well of loading solution: 5 ml DMEM/F12/10% Donor Bovine Serum, 25 μl Calcein AM—from freshly dissolved aliquot in 50 μl DMSO (VWR #734-1434), and 100 μl Probenecid.
3) Incubate the well for 90 minutes at 37° C.
4) Perform one wash with 75 μl wash buffer.
5) Add 75 μl of an example compound prepared in wash buffer per well.
Example compounds are prepared in 500 μl U bottom PP plates (NUNC). 2.7 μl Substance in DMSO are added to row A; 180 μl of wash buffer+1% DMSO are added to rows B—H. 90 μl from row A are transferred and mixed with all other wells (up to row G) to make a 3-fold dilution series.
6) Assay in FLUOstar Optima at 25° C. Settings buffer addition at 135 μl/seconds, add 75 μl/well, record time course for 30 seconds, add sucrose buffer 3.6 seconds into recording.
7) Normalization to initial in Excel.
8) Fit to “exponential decay” function in GraphPad Prism 5.0, then arrange half live shrinking values according to wells and fit dose-response curves.

Sequence of human aquaporin 9 (O43315 whole entry): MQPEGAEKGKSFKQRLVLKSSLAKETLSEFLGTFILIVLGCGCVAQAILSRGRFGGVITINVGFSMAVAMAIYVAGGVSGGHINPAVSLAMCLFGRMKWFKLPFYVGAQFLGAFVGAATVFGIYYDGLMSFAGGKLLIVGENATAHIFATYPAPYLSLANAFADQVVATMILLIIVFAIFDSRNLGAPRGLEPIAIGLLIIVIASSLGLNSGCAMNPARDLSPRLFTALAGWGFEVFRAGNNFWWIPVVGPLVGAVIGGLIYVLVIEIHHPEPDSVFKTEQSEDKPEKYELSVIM

Compound | EC50 [nM] | pEC50 in the inhibition of human aquaporin 9
CCn1c(CCOC)nnc1SCC(=O)Nc1nnc(-c2ccc(OC)cc2)s1 [Example 44, 2-[(4-ethyl-5-(2-methoxyethyl)-4H-1,2,4-triazol-3-yl)sulfanyl]-N-[5-(4-methoxyphenyl)-1,3,4-thiadiazol-2-yl]acetamide] | 457 | 
CCc1nnc(SCC(=O)Nc2nnc(-c3ccc(OC(C)C)cc3)s2)n1CC [Example 34, 2-[(4,5-diethyl-4H-1,2,4-triazol-3-yl)sulfanyl]-N-[5-(4-isopropoxyphenyl)-1,3,4-thiadiazol-2-yl]acetamide] | 55 | 
CCn1c(SCC(=O)Nc2nnc(-c3ccc(O)cc3)s2)nnc1C1CC1 [Example 38, 2-[(5-cyclopropyl-4-ethyl-4H-1,2,4-triazol-3-yl)sulfanyl]-N-[5-(4-hydroxyphenyl)-1,3,4-thiadiazol-2-yl]acetamide] | 81 | 7.1
CCc1nnc(SCC(=O)Nc2nnc(-c3ccccn3)s2)n1CC [Example 49, 2-[(4,5-diethyl-4H-1,2,4-triazol-3-yl)sulfanyl]-N-[5-(pyridin-2-yl)-1,3,4-thiadiazol-2-yl]acetamide] | 224 | 
CCn1c(Cc2ccccc2)nnc1SCC(=O)Nc1nnc(-c2ccc(OC)cc2)s1 [Example 3, 2-[(5-benzyl-4-ethyl-4H-1,2,4-triazol-3-yl)sulfanyl]-N-[5-(4-methoxyphenyl)-1,3,4-thiadiazol-2-yl]acetamide] | 195 | 6.7
CCn1c(SCC(=O)Nc2nnc(-c3ccc(S(C)(=O)=O)cc3)s2)nnc1C(C)C [Example 6, 2-{[4-ethyl-5-(propan-2-yl)-4H-1,2,4-triazol-3-yl]sulfanyl}-N-[5-(4-methanesulfonylphenyl)-1,3,4-thiadiazol-2-yl]acetamide] | 192 | 6.7
CCc1nnc(SCC(=O)Nc2nnc(-c3ccc(CC(C)C)cc3)s2)n1CC [Example 19, 2-[(diethyl-4H-1,2,4-triazol-3-yl)sulfanyl]-N-{5-[4-(2-methylpropyl)phenyl]-1,3,4-thiadiazol-2-yl}acetamide] | 94 | 
CCc1nnc(SCC(=O)Nc2nnc(-c3ccc(SC)cc3)s2)n1CC [Example 12] | 57 | 
CCCc1ccc(-c2nnc(NC(=O)CSc3nnc(CC)n3CC)s2)cc1 [Example 15, 2-[(diethyl-4H-1,2,4-triazol-3-yl)sulfanyl]-N-[5-(4-propylphenyl)-1,3,4-thiadiazol-2-yl]acetamide] | 57 | 
CCc1nnc(SCC(=O)Nc2nnc(-c3ccc(O)cc3)s2)n1CC [Example 21, 2-[(diethyl-4H-1,2,4-triazol-3-yl)sulfanyl]-N-[5-(4-hydroxyphenyl)-1,3,4-thiadiazol-2-yl]acetamide] | 224 | 
CCc1nnc(SCC(=O)Nc2nnc(-c3ccc(S(C)(=O)=O)cc3)s2)n1C1CC1 [Example 39, 2-[(4-cyclopropyl-5-ethyl-4H-1,2,4-triazol-3-yl)sulfanyl]-N-[5-(4-(methylsulfonyl)phenyl)-1,3,4-thiadiazol-2-yl]acetamide] | 135 | 
CCn1c(C)nnc1SCC(=O)Nc1nnc(-c2ccc(S(C)(=O)=O)cc2)s1 [Example 5, 2-[(4-ethyl-5-methyl-4H-1,2,4-triazol-3-yl)sulfanyl]-N-[5-(4-methanesulfonylphenyl)-1,3,4-thiadiazol-2-yl]acetamide] | 455 | 
CCc1nnc(SCC(=O)Nc2nnc(-c3ccc(C(F)(F)F)cc3)s2)n1CC [Example 33, 2-[(4,5-diethyl-4H-1,2,4-triazol-3-yl)sulfanyl]-N-[5-(4-(trifluoromethyl)phenyl)-1,3,4-thiadiazol-2-yl]acetamide] | 119 | 
CCn1c(SCC(=O)Nc2ccc(-c3ccc(OC)cc3)nn2)nnc1-c1ccc(F)cc1 [Example 9, 2-{[4-ethyl-5-(4-fluorophenyl)-4H-1,2,4-triazol-3-yl]sulfanyl}-N-[6-(4-methoxyphenyl)pyridazin-3-yl]acetamide] | 87 | 
CCc1nnc(SCC(=O)Nc2nnc(-c3ccc(OC)cc3)s2)n1CCCOC [Example 47, 2-{[5-ethyl-4-(3-methoxypropyl)-4H-1,2,4-triazol-3-yl]sulfanyl}-N-[5-(4-methoxyphenyl)-1,3,4-thiadiazol-2-yl]acetamide] | 159 | 
CCn1c(CN2CCOCC2)nnc1SCC(=O)Nc1nnc(-c2ccc(OC)cc2)s1 [Example 48, 2-{[4-ethyl-5-(morpholin-4-ylmethyl)-4H-1,2,4-triazol-3-yl]sulfanyl}-N-[5-(4-methoxyphenyl)-1,3,4-thiadiazol-2-yl]acetamide] | 230 | 
CCn1c(CCOC)nnc1SCC(=O)Nc1nnc(-c2ccccc2)s1 [Example 22, 2-{[4-ethyl-5-(2-methoxyethyl)-4H-1,2,4-triazol-3-yl]sulfanyl}-N-(5-phenyl-1,3,4-thiadiazol-2-yl)acetamide] | 249 | 
CCc1ccc(-c2nnc(NC(=O)CSc3nnc(CC)n3CC)s2)cc1 [Example 14, 2-[(diethyl-4H-1,2,4-triazol-3-yl)sulfanyl]-N-[5-(4-ethylphenyl)-1,3,4-thiadiazol-2-yl]acetamide] | 65 | 7.2
CCn1c(SCC(=O)Nc2nnc(-c3ccc(OC(C)C)cc3)s2)nnc1C(C)C [Example 29, 2-{[4-ethyl-5-(propan-2-yl)-4H-1,2,4-triazol-3-yl]sulfanyl}-N-{5-[4-(propan-2-yloxy)phenyl]-1,3,4-thiadiazol-2-yl}acetamide] | 90 | 
CCn1c(OCC(=O)Nc2nnc(-c3ccc(OC)cc3)s2)nnc1-c1ccc(F)cc1 [Example 4, 2-{[4-ethyl-5-(4-fluorophenyl)-4H-1,2,4-triazol-3-yl]oxy}-N-[5-(4-methoxyphenyl)-1,3,4-thiadiazol-2-yl]acetamide] | 175 | 
